Data as given in ChEMBL document CHEMBL1201862, “PubChem BioAssay data set” (2004).
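All cell lines were grown in 96-well plates and treated with compound for 48 hours. GI50 marks 50% less growth.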 Calls of active or inactive are those of the source. Rule as the data show it: active = GI50 up to about 1.1 µM and inactive = higher.

Tests used:
Assay in all cases: inhibition of tumour cell growth, NCI panel, 48 h
[1] = test system: HOP-62
[2] = test system: MCF7
[3] = test system: COLO 205
[4] = test system: 786-0
[5] = test system: HCT-15
[6] = test system: SF-295
[7] = test system: HL-60
[8] = test system: SK-MEL-2
[9] = test system: DU-145
[10] = test system: PC-3
[11] = test system: TK-10
[12] = test system: Hs-578T
[13] = test system: LOX IMVI
[14] = test system: HCT-116
[15] = test system: M14
[16] = test system: SK-MEL-28
[17] = test system: NCI-H226
[18] = test system: MOLT-4
[19] = test system: A498
[20] = test system: NCI-H460

Measured: GI50

O=c1[nH]c2nc3ccccc3c(=O)n2/c1=C/c1cccs1
> 100 µM: [5]
inactive: [1] > 100 µM | [2] > 100 µM | [3] > 100 µM | [4] > 100 µM | [6] > 100 µM | [7] > 100 µM | [8] > 100 µM | [9] > 100 µM | [10] > 100 µM | [11] > 100 µM | [12] 67 µM | [13] > 100 µM | [14] > 100 µM | [15] > 100 µM | [16] > 100 µM | [17] > 100 µM | [18] > 100 µM

Clc1ccccc1-c1nnc2c(-c3ccccc3)nc3ccccc3n12
inactive: [1] 69.3 µM | [2] 92 µM | [3] > 100 µM | [4] 40.9 µM | [7] 54.5 µM | [8] > 100 µM | [9] > 100 µM | [10] > 100 µM | [11] > 100 µM | [13] > 100 µM | [14] > 100 µM | [15] > 100 µM | [16] > 100 µM | [17] > 100 µM | [19] > 100 µM | [18] 42.6 µM | [20] > 100 µM
> 100 µM: [5]

O=C(O)CN(CCNC(=O)OCC1c2ccccc2-c2ccccc21)CCNC(=O)OCC1c2ccccc2-c2ccccc21
27.2 µM: [5]
inactive: [1] 21.3 µM | [2] 18 µM | [3] 20.8 µM | [4] 20.1 µM | [6] 25 µM | [7] 24.6 µM | [8] 22.9 µM | [9] 19.9 µM | [10] 24 µM | [11] 29.1 µM | [12] 43.9 µM | [13] 18.1 µM | [14] 17.7 µM | [15] 28.8 µM | [16] 25 µM | [17] 33.3 µM | [18] 23.4 µM | [20] 19.2 µM

COc1ccc(C[C@H]2COC(=O)[C@@H]2Cc2cc(OC)c(OC)c(OC)c2)cc1OC
> 100 µM: [5]
inactive: [1] > 100 µM | [2] > 64 µM | [3] > 100 µM | [4] > 100 µM | [6] > 100 µM | [8] > 88.3 µM | [9] > 100 µM | [10] 42 µM | [11] > 100 µM | [12] 38 µM | [13] > 74.1 µM | [14] > 87.9 µM | [15] 90.4 µM | [16] 98.2 µM | [17] > 34.4 µM | [18] 32.4 µM | [20] > 100 µM

CCOP(=O)(OCC)OC1CC(n2cnc3c(N(CC)CC)ncnc32)OC1CO[Si](C)(C)C(C)(C)C (centres undefined)
inactive: [1] 19.7 µM | [2] 21.8 µM | [3] 18.5 µM | [4] 16.1 µM | [6] 16.7 µM | [7] 65 µM | [8] 21.7 µM | [9] 15.5 µM | [10] 12.2 µM | [11] 18.3 µM | [12] 22 µM | [13] 16.2 µM | [14] 16.8 µM | [15] 18.8 µM | [16] 18.5 µM | [17] 19.2 µM | [18] 11.2 µM | [20] 15 µM
21.4 µM: [5]

Cc1c(Cl)c(=O)oc2cc(OCC(O)COC(C)C)ccc12 (centres undefined)
inactive: [1] 38.7 µM | [2] 22 µM | [3] 14 µM | [4] 39.9 µM | [6] 64.4 µM | [7] 22.1 µM | [8] 30.3 µM | [9] 99.5 µM | [10] 43.5 µM | [11] 35.2 µM | [12] 48.4 µM | [13] 35 µM | [14] 43 µM | [15] 32.2 µM | [16] > 100 µM | [18] 27.5 µM | [20] 36.1 µM

O=C(c1ccccc1)C1C(C(=O)c2ccccc2)N1Cc1ccccc1 (centres undefined)
inactive: [1] 30.5 µM | [3] 24.3 µM | [4] 34.8 µM | [6] 39.7 µM | [8] 17.5 µM | [9] 24.4 µM | [10] 23.4 µM | [11] 46.9 µM | [12] 32.3 µM | [13] 31.2 µM | [15] 28.6 µM | [16] 32.7 µM | [17] 32.6 µM | [19] 33 µM | [18] 40.6 µM | [20] 29.2 µM
57.3 µM: [5]

c1cc2c(cc1[C@@H]1OC[C@@H]3[C@H]1CO[C@H]3c1ccc3c(c1)OCO3)OCO2
> 100 µM: [5]
inactive: [1] > 100 µM | [2] 34.9 µM | [3] > 100 µM | [4] > 100 µM | [6] > 100 µM | [7] 44 µM | [8] > 100 µM | [9] > 100 µM | [10] 51.4 µM | [11] 30.3 µM | [13] 36.2 µM | [14] 26.9 µM | [15] 62.8 µM | [16] > 100 µM | [17] > 100 µM | [19] > 100 µM | [18] 28.4 µM | [20] > 100 µM

O=c1c2ccc(Cl)cc2oc2c(CNc3ccc(S(=O)(=O)Nc4ncccn4)cc3)cccc12
inactive: [1] 90.8 µM | [2] > 100 µM | [3] > 100 µM | [4] > 100 µM | [6] > 100 µM | [7] > 100 µM | [8] > 100 µM | [10] > 100 µM | [11] > 100 µM | [13] > 100 µM | [14] > 100 µM | [15] > 100 µM | [16] > 100 µM | [17] > 100 µM | [19] > 100 µM | [18] > 100 µM
> 100 µM: [5]

Cc1cc(S(=O)(=O)N/C(=C(\C#N)C(=O)c2ccc(Cl)cc2)[n+]2ccc(N(C)C)cc2)c([S-])cc1Cl
48.6 µM: [5]
inactive: [1] 38.1 µM | [2] 71.3 µM | [3] > 100 µM | [4] > 100 µM | [6] 62.2 µM | [7] > 100 µM | [8] 4.84 µM | [9] > 100 µM | [10] 36.6 µM | [11] 43.2 µM | [14] 19.8 µM | [15] 41.9 µM | [16] > 100 µM | [17] > 100 µM | [19] 12.3 µM | [18] > 100 µM | [20] 42.6 µM

CCOn1c(C2(CC3CCN(C(=O)c4ccccc4)CC3)OCCO2)cc2ccccc21
inactive: [1] 15.1 µM | [2] 14.8 µM | [3] 16.4 µM | [4] 16.5 µM | [6] 15.8 µM | [8] 16.8 µM | [9] 18.1 µM | [10] 12.6 µM | [11] 12.2 µM | [13] 15.7 µM | [14] 15.8 µM | [15] 16.7 µM | [16] 13.2 µM | [19] 12.9 µM | [18] 12.8 µM | [20] 14.1 µM
22.5 µM: [5]
active: [17] 0.084 µM

CCOC(=O)c1nc2ccccc2nc1Nc1ccc(OC)c(OC)c1
inactive: [1] > 100 µM | [2] > 100 µM | [3] > 100 µM | [4] 77.1 µM | [6] > 100 µM | [7] > 100 µM | [8] > 100 µM | [9] > 100 µM | [11] > 10 µM | [12] 37.7 µM | [14] > 100 µM | [15] > 100 µM | [16] > 100 µM | [18] > 100 µM | [20] > 100 µM
> 100 µM: [5]

CCN(CC)CCN1C(=O)c2c(c(-c3ccccc3)c3ccccc3c2-c2ccccc2)C1=O
inactive: [1] 71.1 µM | [2] > 100 µM | [3] > 100 µM | [4] 37.6 µM | [6] 71.6 µM | [7] > 100 µM | [8] > 100 µM | [10] > 100 µM | [11] > 100 µM | [12] > 100 µM | [13] > 100 µM | [14] > 100 µM | [15] > 100 µM | [17] > 100 µM | [19] > 100 µM | [18] > 100 µM | [20] > 100 µM
> 100 µM: [5]

CSc1nc(-c2cc3c(c(SC)n2)CCC3)cc2c1CCC2
inactive: [1] > 100 µM | [3] > 100 µM | [4] > 100 µM | [6] > 100 µM | [7] > 100 µM | [8] > 100 µM | [9] > 100 µM | [10] > 100 µM | [11] > 100 µM | [14] > 100 µM | [15] > 100 µM | [16] > 100 µM | [17] > 100 µM | [19] > 100 µM | [18] > 100 µM | [20] > 100 µM
> 100 µM: [5]

c1ccc(C2SCc3nc4cc5ccccc5cc4n32)cc1 (centres undefined)
> 100 µM: [5]
inactive: [1] > 100 µM | [2] > 100 µM | [3] > 100 µM | [4] 60.4 µM | [6] 85.5 µM | [8] > 100 µM | [9] > 100 µM | [10] > 100 µM | [11] > 100 µM | [12] 60.3 µM | [13] > 100 µM | [14] > 100 µM | [15] > 100 µM | [16] > 100 µM | [17] > 100 µM | [18] > 100 µM

O=C(O)c1ccc(-c2nc3cc(Cl)ccc3[nH]2)cc1
inactive: [1] > 100 µM | [2] > 100 µM | [3] > 100 µM | [4] > 100 µM | [6] > 100 µM | [7] > 100 µM | [8] > 100 µM | [10] > 100 µM | [12] > 100 µM | [15] > 100 µM | [17] > 100 µM | [18] > 100 µM
> 100 µM: [5]
